Here are results for three compounds from US20150064109A1, “Quantified differentiation and identification of changes in tissue by enhancing differences in blood flow and metabolic activity” (priority 2013, published 2015).

Experiment [1] relates to breast tissue. The experiment can be described thus: Study 1: sestamibi breast imaging, maximal count activity (MCA) with Miraluma, SDD and HDD (B.E.S.T.) in ten women. The experiment is classed as in vivo, human. Conditions: for MCA counts, Cancer: breast cancer tissue; for MCA counts, Inflamatory States: inflammatory breast tissue; for tissue differentiation: outcome in words, referring to FIG. 3 and Table 1. On the procedure:
Two sestamibi imaging studies were conducted. […] The results were also compared with biopsy data. All 10 women in the study had either an abnormality on mammography or a detectable lump on physical examination.
Subjects undergoing breast imaging arrived in the fasting state 15-30 minutes prior to the study. […] The IV was placed in the contralateral arm if there is a specific question regarding a specific breast. Sestamibi was administered intravenously four minutes into the study followed by a 10-20 cc normal saline flush to assure delivery of the isotope into the venous system, with imaging of the breast beginning ten minutes into the study. A SPECT camera was positioned in a stationary (planar) position for each of the images.
Breast imaging began with the patient placed in a prone position on top of a 6-inch foam pad designed to enhance the comfort of the patient while improving breast imaging. Each side of the 6-inch pad had breast inserts held in place by hook and loop-type adhesive strips, which were removed allowing each breast to be positioned through the openings in a dependent manner without breast compression. Planar breast imaging began with the BrQL breast (lateral view of breast in question or the right breast if neither breast was specifically suspected of having an abnormality), then the BrCL breast (lateral view of the breast contralateral to BrQL). Patients were then placed on their back for the anterior (BrAS) image of both breasts. Any areas of special concern, PO BrQ1 (posterior oblique view of 1st breast noted to have abnormal activity on initial views) and PO BrQ2 (posterior oblique view of the other breast if its activity is abnormal) were then imaged.
All images were acquired while the patient was prone, except for the anterior (BrAS) image, which was obtained while the patient was supine.
Breast image acquisition and reconstruction was performed using a Siemens orbiter Single Photon Emission Computed Tomography (SPECT) camera with 75 photomultiplier tubes (PMTs) and a 128 by 128 matrix, available from Siemens Medical Solutions, Malvern, Pa. The images were acquired with the camera head in a stationary (planar) position. The camera, computer and software providing quantification of maximal count activity (MCA) were supplied by NC Systems of Boulder, Colo. A low-energy high-resolution (LEHR) collimator was used providing a resolution of 3.4 mm.
(§1) Subjects arrive in a fasting state 15-30 minutes prior to the study. An 18-20 gauge intravenous catheter was placed either in the right antebrachium, or in the left antebrachium. The IV was placed in the contralateral arm if a specific breast was the breast in question. […] The catheter was flushed with 10-20 cc of normal saline immediately after the HDD had been given to assure introduction of all of the HDD into the venous system. […] Anterior images were obtained with the patient in a supine position.
(§2) An example of the blue-green format is shown in FIG. 2a, juxtaposed with resting images.
Following the image reconstruction and presentation of each breast image, the region of greatest maximal activity (MCA) was determined and “quantified.” MCA is a measure of detected radiation (gamma) emission acquired by the SPECT camera during the imaging process and reflects the amount of isotope present at any given time within the tissue of interest. See Fleming R M, Dooley W C, Boyd L B, Kubovy C, “Breast Enhanced Scintigraphy Testing (B.E.S.T.)—Increased accuracy in detecting breast cancer accomplished by combining breast and cardiac imaging,” 48th Annual Scientific Session of the Society of Nuclear Medicine, Toronto, Ontario, Canada, 26 Jun. 2001, the disclosure of which is incorporated herein by this reference. […] All readings and determination of MCA were determined for each breast prior to any knowledge of clinical, mammographic or pathologic information, which could in any way bias the results.

The test system of experiment [2] is breast tissue. The experiment can be described thus: Study 2: B.E.S.T. (HDD-enhanced sestamibi) breast imaging, MCA compared with histopathology in 195 individuals. It counts as in vivo, human. To be noted: mean ± SD; for MCA quantitative counts, Cancer: breast cancer (n=15); for MCA quantitative counts, Atypia (Pre-cancerous): cellular atypia (15 individuals); for MCA quantitative counts, Inflammatory States: inflammatory changes (n=77); for MCA quantitative counts, Normal: normal breast tissue (n=88).
Source text: Tissue samples were obtained either through ductoscopy, fine needle aspiration or open biopsy and were interpreted by pathologists without knowledge of the sestamibi image results. Results were interpreted as being normal, inflammatory (including trauma, injury, infection, fibrocystic disease, radiation exposure and subsequent injury), atypia (with increasing order of cellular change progressing from hyperplasia to metaplasia/atypia to ductal carcinoma in situ) and cancer.
In a second study, one hundred and ninety five (195) (4 men, 191 women) individuals were studied using the enhanced (HDD) imaging approach. The study included four men having detectable breast lumps and 191 women, including 58 seeking additional information regarding breast disease concerns, and 133 with breast lumps and/or abnormal mammograms. The results of this study were also compared with biopsy data.
as §1, §2
Following the image reconstruction and presentation of each breast image, the region of greatest maximal activity (MCA) was determined and “quantified.” MCA is a measure of detected radiation (gamma) emission acquired by the SPECT camera during the imaging process and reflects the amount of isotope present at any given time within the tissue of interest. See Fleming R M, Dooley W C, Boyd L B, Kubovy C, “Breast Enhanced Scintigraphy Testing (B.E.S.T.)—Increased accuracy in detecting breast cancer accomplished by combining breast and cardiac imaging,” 48th Annual Scientific Session of the Society of Nuclear Medicine, Toronto, Ontario, Canada, 26 Jun. 2001, the disclosure of which is incorporated herein by this reference. […] All readings and determination of MCA were determined for each breast prior to any knowledge of clinical, mammographic or pathologic information, which could in any way bias the results. These procedures were performed at a recognized Center of Excellence for Nuclear Procedures under the direct supervision of a physician Boarded in Nuclear Imaging.
The outcomes of histopathologic specimens were compared with the MCA derived from sestamibi imaging. Descriptive statistical analysis of the MCAs were determined including mean±standard deviations and confidence intervals (CI) for the mean. Group comparisons were made using two-tailed t-tests to determine statistical differences defined as p-values of ≦0.05. Graphic representation of the means is shown for comparison purposes as well as raw data comparison for the histopathologic categories.

For another experiment, the system named is mitochondria. To be noted: energy dependent manner; cited from earlier work.

SMILES strings stand for the structures.

Turning to `OCCN(CCO)c1nc(N2CCCCC2)c2nc(N(CCO)CCO)nc(N3CCCCC3)c2n1` [HDD/B.E.S.T. ©, dipyridamole], in the experiment with breast tissue [1] (mean ± SD, Study 1), the “MCA counts, Cancer” value came out at 442.0 ± 5.7 counts and the “MCA counts, Inflamatory States” value came to 228.8 ± 24.0 counts. Further, in the experiment on breast tissue [1] (mean ± SD, Study 1, listed as B.E.S.T.©), the “MCA counts, Cancer” value is reported as 442.0±5.7 counts. Further, the “MCA counts, Normal” value with breast tissue [1] (normal breast tissue, mean ± SD, sestamibi 25-30 mCi iv, Study 1) came to 125.5 ± 31.5 counts. Further, the tissue differentiation entry in the experiment with breast tissue [1] (listed as HDD) is reported as “statistically significant at differentiating tissue types”. In the experiment on breast tissue [2] (listed as B.E.S.T. ©), the “MCA quantitative counts, Cancer” value worked out at 445.3 ± 83.3 counts; the “MCA quantitative counts, Atypia (Pre-cancerous)” value is recorded as 307.7 ± 29.3 counts; the “MCA quantitative counts, Inflammatory States” value came to 218.0 ± 40.3 counts; the “MCA quantitative counts, Normal” value was 145 ± 29.1 counts. In addition, in the experiment on breast tissue [2] (listed as B.E.S.T.©), the “MCA quantitative counts, Cancer” value came out at 445.3±83.3 counts; the “MCA quantitative counts, Atypia (Pre-cancerous)” value is 307.7±29.3 counts; the “MCA quantitative counts, Inflammatory States” value came to 218.0±40.3 counts; the “MCA quantitative counts, Normal” value was determined as 145.0±29.1 counts.
With `[99Tc+].[C-]#[N+]CC(C)(C)OC.[C-]#[N+]CC(C)(C)OC.[C-]#[N+]CC(C)(C)OC.[C-]#[N+]CC(C)(C)OC.[C-]#[N+]CC(C)(C)OC.[C-]#[N+]CC(C)(C)OC` [sestamibi, Technetium-99m hexakis 2-methoxyisobutylisonitrile], the “sestamibi taken up by mitochondria” value in the experiment on mitochondria is reported as “over 90%”.
In the case of `OCCN(CCO)c1nc(N2CCCCC2)c2nc(N(CCO)CCO)nc(N3CCCCC3)c2n1` [SDD, dipyridamole], in the experiment on breast tissue [1] (mean ± SD, Study 1), the “MCA counts, Cancer” value amounted to 285.8 ± 17.0 counts and the “MCA counts, Inflamatory States” value came out at 183.5 ± 19.0 counts. In the experiment on breast tissue [1], the tissue differentiation result is “useless in tissue differentiation”.
